Measured values published in patent publication US8138168B1 (Takeda Pharmaceutical Company Limited, priority 2007, dated 2012).

target: T1, Recombinant human renin (Homo sapiens, UniProt P00797); experiment: In vitro enzymatic activity assay of renin inhibitors (fluorogenic peptide substrate); format: biochemical; conditions: read-out: IC50 of Exemplified Compounds Against Renin
T1 construct: isolate the active form (residues 67-406); made in house; host or cells: FreeStyle 293-F cells (transient expression of pcDNA3.1(+)/hREN)
T1 sequence (P00797 67-406): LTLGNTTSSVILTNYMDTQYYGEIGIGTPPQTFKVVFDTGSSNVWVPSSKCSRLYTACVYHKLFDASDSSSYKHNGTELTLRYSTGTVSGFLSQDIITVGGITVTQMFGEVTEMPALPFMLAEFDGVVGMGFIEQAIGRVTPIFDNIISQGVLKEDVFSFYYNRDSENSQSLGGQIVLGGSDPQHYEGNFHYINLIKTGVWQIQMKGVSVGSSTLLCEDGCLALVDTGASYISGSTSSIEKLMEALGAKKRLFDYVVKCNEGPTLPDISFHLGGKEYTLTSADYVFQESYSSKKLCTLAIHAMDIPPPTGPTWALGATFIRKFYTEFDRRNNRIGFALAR
How it was run: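 Recombinant human renin (3 nM final) pre-incubated 10 min at 37 °C with compounds in pH 7.4 Hepes/EDTA/DTT/0.1 mg/mL BSA/Brij35 buffer (optionally plus 2% BSA), 5% DMSO final; fluorogenic QXL520/HiLyteFluo488 peptide substrate added.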

Row | SMILES | IC50 [nM]
1 | COCCCn1c([C@@H]2CCCN(C(=O)C[C@H](N)Cc3ccc(-c4ccc5c(c4)OCCO5)cc3)C2)nc2c(F)cccc21 [Compound 455, (R)-3-amino-4-(4-(2,3-dihydrobenzo[b][1,4]dioxin-6-yl)phenyl)-1-((R)-3-(4-fluoro-1-(3-methoxypropyl)-1H-benzo[d]imidazol-2-yl)piperidin-1-yl)butan-1-one] | < 100
2 | COCCCn1c([C@H]2CCCN(C(=O)C[C@H](N)Cc3ccc(Cl)cc3)C2)nc2ccccc21 [Compound 68, (R)-3-amino-4-(4-chlorophenyl)-1-((S)-3-(1-(3-methoxypropyl)-1H-benzo[d]imidazol-2-yl)piperidin-1-yl)butan-1-one] | > 1000
3 | CC(=O)NCCn1c([C@@H]2CCCN(C(=O)C[C@H](N)Cc3ccc(-c4ccc5c(c4)CC(=O)N5)cc3)C2)nc2ccccc21 [Compound 465, N-(2-(2-((R)-1-((R)-3-amino-4-(4-(2-oxoindolin-5-yl)phenyl)butanoyl)piperidin-3-yl)-1H-benzo[d]imidazol-1-yl)ethyl)acetamide] | < 100
4 | S=C(Nc1cccc2nsnc12)N1CCCC(c2nc3ccccc3[nH]2)C1 (stereo not drawn) [Compound 18, N-(benzo[c][1,2,5]thiadiazol-4-yl)-3-(1H-benzo[d]imidazol-2-yl)piperidine-1-carboxthioamide] | > 1000
5 | COCCCn1c([C@@H]2CCCN(C(=O)C[C@H](N)Cc3ccc(-c4ccc(N)nc4)cc3)C2)nc2ccccc21 [Compound 136, (R)-3-amino-4-(4-(6-aminopyridin-3-yl)phenyl)-1-((R)-3-(1-(3-methoxypropyl)-1H-benzo[d]imidazol-2-yl)piperidin-1-yl)butan-1-one] | < 100
6 | COCCCn1c([C@@H]2CCCN(C(=O)C[C@H](N)CNS(=O)(=O)C(C)C)C2)nc2ccccc21 [Compound 312, N-((S)-2-amino-4-((R)-3-(1-(3-methoxypropyl)-1H-benzo[d]imidazol-2-yl)piperidin-1-yl)-4-oxobutyl)propane-2-sulfonamide] | 100 to 1000
7 | CC(=O)NCCn1c([C@@H]2CCCN(C(=O)C[C@H](N)Cc3ccc(-c4ccc(N)nc4)cc3)C2)nc2ccccc21 [Compound 446, N-(2-(2-((R)-1-((R)-3-amino-4-(4-(6-aminopyridin-3-yl)phenyl)butanoyl)piperidin-3-yl)-1H-benzo[d]imidazol-1-yl)ethyl)acetamide] | 100 to 1000
8 | COCCCn1c([C@@H]2CCCN(C(=O)C[C@H](N)Cc3cccc(Cl)c3)C2)nc2ccccc21 [Compound 79, (R)-3-amino-4-(3-chlorophenyl)-1((R)-3-(1-(3-methoxypropyl)-1H-benzo[d]imidazol-2-yl)piperidin-1-yl)butan-1-one] | 100 to 1000
9 | COCCCn1c([C@@H]2CCCN(C(=O)C[C@H](N)Cc3ccc(-c4ccc5c(c4)OC(F)(F)O5)cc3)C2)nc2c(F)cccc21 [Compound 454, (R)-3-amino-4-(4-(2,2-difluorobenzo[d][1,3]dioxol-5-yl)phenyl)-1-((R)-3-(4-fluoro-1-(3-methoxypropyl)-1H-benzo[d]imidazol-2-yl)piperidin-1-yl)butan-1-one] | < 100
10 | O=C(Nc1cccnc1)N1CCCC(c2nc3ccccc3[nH]2)C1 (stereo not drawn) [Compound 20, 3-(1H-benzo[d]imidazol-2-yl)-N-(pyridin-3-yl)piperidine-1-carboxamide] | > 1000
11 | COCCCn1c([C@@H]2CCCN(C(=O)C[C@H](N)Cc3ccc(N4CCC(CCO)CC4)cc3)C2)nc2ccccc21 [Compound 236, (R)-3-amino-4-(4-(4-(2-hydroxyethyl)piperidin-1-yl)phenyl)-1-((R)-3-(1-(3-methoxypropyl)-1H-benzo[d]imidazol-2-yl)piperidin-1-yl)butan-1-one] | < 100
12 | COCCCn1c([C@@H]2CCCN(C(=O)C[C@H](N)CNC(=O)Nc3ccc(OC)cc3)C2)nc2ccccc21 [Compound 253, 1-((S)-2-amino-4-((R)-3-(1-(3-methoxypropyl)-1H-benzo[d]imidazol-2-yl)piperidin-1-yl)-4-oxobutyl)-3-(4-methoxyphenyl)urea] | < 100
